Test [1] concerns db/db diabetic mice. Description: Type 2 diabetic renal damage, db/db mice, comparison with Losartan (Experimental Example 2). To be noted: oral, daily 12 weeks, Formula B 10 mg/kg; for glomerular filtration rate decrease / glomerular hypertrophy / proteinuria / tubular injury: Losartan 1.5 mg/kg (FIG. 4-6); for renal fibrosis: Losartan 1.5 mg/kg (FIG. 7, 8); for inflammation response: Losartan 1.5 mg/kg (FIG. 9, 10); for oxidative stress: Losartan 1.5 mg/kg (FIG. 11, 12); for lipid accumulation: Losartan 1.5 mg/kg (FIG. 13, 14). Format: in vivo. The method, then: In order to compare the therapeutic efficacy between the adenosine derivative of the present invention and Losartan, which is used for alleviating the symptoms of diabetic kidney disease, the following animal experiments were performed.
The compound of Chemical Formula B and rosartan were oral administered at a dose of 10 mg/kg and 1.5 mg/kg to 8-week-old normal db/m mice in which diabetes were not induced and 8-week-old db/db diaetic mice in which diabetes were induced, respectively for 12 weeks daily. The kidneys of the solvent control group and the drug administration group were extracted to observe the histological changes of the glomeruli and the changes in the indicators for renal damage such as proteinuria, glomerular filtration rate reduction, tubular injury, glomerular hypertrophy, renal fibrosis, inflammatory response, oxidative stress and lipid accumulation were compared.
The morphological analysis of kidney including glomeruli was performed by PAS staining of kidney tissues followed by random selection of each 50, quantification by an image analyzer and statistics, and urinary albumin and LPO were analyzed by electrophoresis and ELISA (Enzyme-Linked ImmunoSorbent Assay) and mRNA expression was analyzed by real time PCR.
Glomerular filtration rate was calculated by measuring blood and urine creatinine using the Jaffe method and changes in kidney protein were measured by western blot, ELISA and immunohistochemistry.
In FIG. 4 to FIG. 14, db/m and db/db represent the mice to which the solvent (0.25% CMC) used in administering the compound of Chemical Formula B was administered, respectively, and db/m+LJ2698 and db/db+LJ2698 represent normal mice and diabetic mice to which the compound of Chemical Formula B is administered for 12 weeks, respectively. db/db+Losartan represents diabetic mice to which Losartan was administered for 12 weeks.

Test [2] relates to mice-derived tubular epithelial cells. Description: Inflammation and fibrosis response in cultured tubular epithelial cells (Experimental Example 4). It counts as cell-based. To be noted: induced with high glucose, angiotensin II and free fatty acids (FIG. 20). Here is the method:
(§1) In order to examine the anti-inflammatory and anti-fibrotic effects of the adenosine derivatives of the present invention on cultured cells, the following in vitro experiments were performed.

Test [3] deals with db/db diabetic mice. As to the kind of experiment: Type 2 diabetic renal damage, db/db mice, dose-dependency (Experimental Example 1). It counts as in vivo. To be noted: db/db mice, 1.5, 5 and 10 mg/kg. Here is the method:
The following animal experiments were performed to examine the inhibitory effect of the adenosine derivatives of the present invention on renal damage in the type 2 diabetes model.
After 12 weeks of the administration, kidneys of the solvent control group and the test substance administration group were extracted to observe the histological changes of the glomeruli and the levels of urinary albumin and LPO (lipid peroxide) or the amount of mRNA expression for nephrin, NGAL, TGF-β, collagen IV, fibronectin, MCP-1 and ICAM-1 was set as an index for renal damage and the protective effect for kidney was measured. Db/m mice in which diabetes were not induced, were added as a control group and only a solvent was administered to observe and measure the above items.
Of these indices, urinary albumin level means proteinuria, nephrin reduction means podocyte injury, NGAL increase means tubular injury, TGF-β increase means fibrosis, inflammatory cytokine (MCP-1, ICAM-1) increase means Inflammatory response and LPO values indicate oxidative stress.
The morphological analysis of glomeruli was performed by PAS (Periodic Acid Schiff) staining of kidney tissues followed by random selection of each 50, quantification by an image analyzer and statistics, and urinary albumin and LPO were analyzed by electrophoresis and ELISA (Enzyme-Linked ImmunoSorbent Assay) and mRNA expression was analyzed by real time PCR.
In FIG. 2 and FIG. 3, db/m represents normal mice, db/db represents diabetic mice administered with only solvent (0.25% CMC) and db/db+LJ2698 (1.5 mg/kg), db/db+LJ2698 (5 mg/kg) and db/db+LJ2698 (10 mg/kg) represent diabetic mice in which the compound of Chemical Formula B is administered at 1.5, 5 and 10 mg/kg, respectively, for 12 weeks daily.

In test [4] the test system is mice-derived glomerular podocyte. As to the kind of experiment: Inflammation and fibrosis response in cultured glomerular podocytes (Experimental Example 4). It counts as cell-based. The conditions noted are these: induced with high glucose, angiotensin II and free fatty acids (FIG. 20). Here is the method:
as §1

Test [5] deals with mice in which type 1 diabetes was induced (STZ). Description: Type 1 diabetic renal damage, streptozotocin-induced diabetic mice (Experimental Example 3). Format: in vivo. To be noted: daily 12 weeks, Formula B 10 mg/kg. Here is the method: The following animal experiments were performed to examine the inhibitory effect on the kidney injury by administering the adenosine derivative of the present invention to an animal model of type 1 diabetes.
After streptozotocin (STZ) was administered to normal mice for 5 days to induce type 1 diabetes, the mice have been classified into, a group in which 10 mg/kg compound of Chemical Formula B was administered daily, a group in which 1.5 mg/kg of LC158809, a type of ARB, was administered daily, and a group in which 10 mg/kg compound of Chemical Formula B and 1.5 mg/kg of LC158809 were co-administered daily, then all groups were given total of 12 weeks administration.
Kidney function and histologic changes of the kidney and the like were examined for normal mice to which streptozotocin was not administered, diabetic mice to which the only solvent was administered after 12 weeks of streptozotocin administration and diabetic mice to which test substance was administered after 12 weeks of streptozotocin administration.
FIG. 15 to FIG. 17 are graphs showing the results of measuring the levels of urinary albumin, nephrin and 8-isoprostan according to the above-mentioned experiment. Urine albumin, nephrin and 8-isoprostanone levels were measured as indicators of proteinuria, glomerular podocyte damage and oxidative stress, respectively.
In FIG. 15 to FIG. 19, Control and STZ represent normal mice and mice in which type 1 diabetes was induced, and STZ+ARB, STZ+LJ2698 and STZ+ARB+LJ2698 represent diabetic mice in which […] and the compound of Chemical Formula B+LC158809 (co-administration) were administered for 12 weeks, respectively.

Setting [6] is: LC158809 1.5 mg/kg (FIG. 18, 19).

The results in this text go back to patent US11266644B2, “Pharmaceutical composition for preventing and treating diabetic nephropaphy including adenosine derivative” (FUTURE MEDICINE CO., LTD., priority 2017, dated 2022).

Structures are written as SMILES.

For the molecule `CCCCc1nc(Cl)c(CO)n1Cc1ccc(-c2ccccc2-c2nn[nH]n2)cc1` [Losartan, (2-butyl-4-chloro-1-{[2′-(1H-tetrazol-5-yl)biphenyl-4-yl]methyl}-1H-imidazol-5-yl}methanol, reference compound], in the test on db/db diabetic mice [1], the “glomerular filtration rate decrease” value is given as “similar”, the glomerular hypertrophy entry is “similar”, the proteinuria result is given as “similar” and the tubular injury entry was “similar”. In the test with db/db diabetic mice [1], the renal fibrosis entry is “inhibited to a similar level”, the inflammation response result was “inhibited to a similar level”, the oxidative stress entry was “inhibited to a similar level” and the lipid accumulation result was “inhibited to a similar level”.

Turning to `O[C@@H]1[C@H](O)CS[C@H]1n1cnc2c(NCc3cccc(Cl)c3)nc(Cl)nc21` [compound of Chemical Formula B, (2R,3R,4S)-2-(2-chloro-6-(3-chlorobenzylamino)-9H-purin-9-yl)tetrahydrothiophene-3,4-diol], in the test with db/db diabetic mice [1], the “glomerular filtration rate decrease” value was “inhibited”, the glomerular hypertrophy result was “inhibited”, the proteinuria entry is given as “inhibited” and the tubular injury entry is on record as “inhibited”. For the same molecule, in the test on db/db diabetic mice [1], the renal fibrosis entry is given as “inhibited to a similar level”, the inflammation response entry is “inhibited to a similar level”, the oxidative stress entry is “inhibited to a similar level” and the lipid accumulation entry is “inhibited to a similar level”. Moreover, in test [2], the “anti-fibrosis effect (collagen IV)” value is listed as “anti-fibrosis”; the “anti-inflammatory effect (Nephrin, MCP-1)” value is “anti-inflammatory effect”; the “antioxidant effect (NOX4)” value is listed as “antioxidant”. In addition, the “vasodilation (glomerular mesangium)” value with db/db diabetic mice [3] (12 weeks (FIG. 1, 2)) is listed as “significantly inhibited”. Moreover, the “urinary albumin levels (proteinuria)” value in the test on db/db diabetic mice [3] (12 weeks (FIG. 3)) was “inhibited dependently on dose”. Moreover, the glomerular hypertrophy result with db/db diabetic mice [3] (12 weeks, PAS staining (FIG. 1, 2)) was “significantly inhibited”. In addition, in the test with db/db diabetic mice [3] (12 weeks, mRNA (FIG. 3)), the “NGAL (tubular injury indicator)” value is on record as “inhibited dependently on dose”, the “TGF-β (fibrosis indicator)” value is “inhibited dependently on dose”, the “collagen IV” value is reported as “inhibited dependently on dose” and the “nephrin (podocyte injury indicator)” value is on record as “inhibited dependently on dose”. Also, in test [4], the “anti-fibrosis effect (collagen IV)” value is given as “anti-fibrosis”; the “anti-inflammatory effect (Nephrin, MCP-1)” value is “anti-inflammatory effect”; the “antioxidant effect (NOX4)” value is “antioxidant”. Further, in test [5] (LC158809 1.5 mg/kg (FIG. 16)), the “urinary nephrin (glomerular podocyte damage)” value is reported as “significantly reduced”. Besides, in test [5] (setting [6]), the “fibrosis of the kidney” value is reported as “significantly reduced” and the “inflammation of the kidney” value is given as “significantly reduced”. The “urinary albumin (proteinuria)” value in test [5] (LC158809 1.5 mg/kg, alone or co-administered (FIG. 15)) is reported as “significantly reduced”. In addition, in test [5] (LC158809 1.5 mg/kg, alone or co-administered (FIG. 17)), the “urinary 8-isoprostanone (oxidative stress)” value is reported as “significantly reduced”.
